Measured values from US10206894B2, “Compounds for use in treatment of mucositis” (priority 2011, dated 2019).
Read-outs that look alike come from different tables or passages of the source.

Legend:
[1] = tested on: fractionated radiation and cisplatin induced oral mucositis, left buccal cheek pouch; format: in vivo; settings: for peak mean mucositis score: peak on Day 19
Experimental: Seventy (70) male Syrian Golden Hamsters were used in this example. Mucositis was induced using a combination of fractionated radiation and cisplatin. Cisplatin was administered on Days 0 and 6 at a dose of 5 mg/kg by i.p. injection. Each hamster was administered a total radiation dose of 60 Gy directed to their left buccal cheek pouch split into eight equal fractions of 7.5 Gy provided on Days 0, 1, 2, 3, 6, 7, 8 and 9. Radiation was generated with a 160 kilovolt potential (15-ma) source at a focal distance of 50 cm, hardened with a 0.35 mm Cu filtration system. Irradiation targeted the left buccal pouch mucosa at a rate of 2.0 Gy/minute. Prior to irradiation, animals were anesthetized with an i.p. injection of ketamine (160 mg/mL) and xylazine (8 mg/mL). The left buccal pouch was everted, fixed and isolated using a lead shield. Test materials were administered topically to the left cheek pouch three times daily, as detailed in Table 3 at a dose of 3 mg/mL in a volume of 0.5 mL per dose, either on the days of radiation (Days 0-3, 6-9), the days on which radiation was not administered (−1, 4, 5 and 10), Days 0-12 or Days 0-35. Mucositis in the left cheek pouch was evaluated clinically starting on Day 7, and continuing on alternate days until Day 35. On Day 35, all animals were euthanized by CO2 inhalation and death was confirmed by monitoring heartbeat in accordance with USDA guidelines.
The mucositis score, weight change and survival were measured throughout the study. For the evaluation of mucositis, the animals were anesthetized with an inhalation anesthetic, and the left pouch everted. Mucositis was scored visually by comparison to a validated photographic scale, ranging from 0 for normal, to 5 for severe ulceration (as described above in Example 2). A score of 1-2 is considered to represent a mild stage of the disease, whereas a score of 3-5 is considered to indicate moderate to severe mucositis. Following visual scoring, a digital image was taken of each animal's mucosa using a standardized technique. At the conclusion of the experiment, images were randomly numbered and scored by two independent trained observers graded the photographs in blinded fashion using the above-described scale (blinded scoring).
The grade of mucositis was scored, beginning on day 7, and for every second day thereafter, through and including day 35, The effect on mucositis of each drug treatment compared to placebo was assessed according to the following parameters: the difference in the number of days hamsters in each group had ulcerative (score ≥3) mucositis and the rank sum differences in daily mucositis scores.
On each evaluation day, the number of animals with a blinded mucositis score of ≥3 in each drug treatment group was compared to the control group. Differences were compared on a cumulative basis and statistical significance was determined by chi-square analysis. Efficacy, in this analysis, is defined by a significant reduction in the number of days that a group of animals had ulcerations (scores ≥3) when compared to the control group.
For each evaluation day the scores of the control group were compared to those of the treated groups using non-parametric rank sum analysis. Treatment success was considered as a statistically significant lowering of scores in the treated group on 2 or more days from day 6 to day 28.
All animals were weighed daily and their survival recorded to assess possible differences in animal weight among treatment groups as an indication for mucositis severity and/or possible toxicity resulting from the treatments. No deaths were observed during this study.
An analysis of the severity of mucositis was performed using the Mann-Whitney rank sum analysis to compare the scores for each treatment group to the controls on each day of the analysis. In this analysis, 2 days of significant reduction in the mucositis score are generally required before it is regarded as meaningful.

[2] = tested on: FaDu human head and neck cancer xenograft; test: Tumor growth and response to therapy in FaDu xenograft; format: in vivo, nude mice (nu/nu); settings: for mice euthanized for tumor volume in excess of 1500 mm^3: vehicle groups 43.3%; for survival at Day 29: vehicle groups 26.7%; for mice euthanized for tumor ulceration: vehicle groups 30%
Experimental: Ninety (90) male nude mice (nu/nu) were divided into nine (9) groups of ten […]) mice per group. To ensure that a sufficient number of tumor-bearing animals were available for this study, a total of 100 mice were inoculated s.c. in the flank with 1×10^6 FaDu cells. FaDu (HTB-43) human head and neck cancer cells were obtained from ATCC. These cells were grown in EMEM medium supplemented with 10% Fetal Calf Serum (FCS), 1% penicillin and streptomycin, and 2 mM L-Glutamine. […] The flask was incubated at 37° C. until cells detached. Cells were then sub-cultured at a ratio of 1:3. […] Tumors were measured once every two days with micro-calipers, and tumor volume was calculated as (length×width×width)/2. Where animals were euthanized for tumor volume exceeding the maximum permissible by IACUC rules (1500 mm^3) or tumor ulceration, the last measurement was carried forward in calculations of mean tumor volume.
All animals were weighed every day and their survival recorded, to assess possible differences in animal weight among treatment groups as an indication of possible toxicity resulting from the treatments. […] Any animals whose tumor grew to over 1500 mm^3 were also euthanized.
Further analysis of the tumor volume data was performed by calculating the mean area under the curve (AUC) for the tumor volume for each animal and comparing the groups using an ANOVA on ranks test. Due to the impact of animals euthanized for tumor ulceration or volume in excess of 1500 mm^3, this analysis was performed on data to Day 15 as well as on the full data set to Day 29.

Q: `N=C(N)NCCCCC(=O)Nc1cc(C(F)(F)F)cc(NC(=O)c2cc(C(=O)Nc3cc(C(F)(F)F)cc(NC(=O)CCCCNC(=N)N)c3OC3CCNC3)ncn2)c1OC1CCNC1` (centres unmarked) [Compound X] was tested. Which “mucositis scores vs saline control group (Mann-Whitney rank sum)” value ([1]; 3 mg/mL tid Day 0 until Day 35, Days 11 (p=0.002), 13 (p=0.023), 15-35 (p<0.001)) did it give?
A: statistically significant reductions

Q: And the “mucositis scores vs Kleptose control group (Mann-Whitney rank sum)” value ([1]; 3 mg/mL tid Day 0 until Day 35, Days 17-35 (p<0.001 for all days))?
A: statistically significant reductions

Q: And the “peak mean mucositis score” value ([1]; 3 mg/rid (in Kleptose vehicle), dosed Days 0-3 and 6-9)?
A: 3.1

Q: And the “% reduction of animal days with OM scores ≥ 3” value ([1]; Fractionated Radiation)?
A: 92.6%

Q: And the “percentage of hamsters in which an ulcer formed during the study” value ([1]; dosed Day 0 to Day 35, 100% in saline and vehicle controls)?
A: 10%

Q: And the ulceration rate ([1]; dosed Days 0-3 and 6-9, on Day 17, continued until Day 29)?
A: 100%

Q: And the “percentage of animal days with a score of 3 or higher” value ([1]; dosed Days 0-3 and 6-9, saline control 54.7%)?
A: 58.0%

Q: And the “maximum mean mucositis score” value ([1]; dosed Days 0-12, maximum on Days 19, 21 and 23)?
A: 3.1

Q: And the ulceration rate ([1]; dosed Days 0-12, on Day 17, continued until Day 27)?
A: 100%

Q: And the “percentage of animal days with a score of 3 or higher” value ([1]; dosed Days 0-12, saline control 54.7%)?
A: 58.0%

Q: And the “maximum mean mucositis score” value ([1]; dosed Days 0-35, maximum on Days 19 and 21)?
A: 2.1

Q: And the ulceration rate ([1]; dosed Days 0-35, on Days 15-23 (single hamster))?
A: 10%

Q: And the “percentage of animal days with a score of 3 or higher (incidence of ulcerative oral mucositis)” value ([1]; dosed Days 0-35, saline control 54.7%, Kleptose vehicle 56.0%, p<0.001)?
A: 3.3%

Q: What about the ulceration rate ([1]; dosed Days −1, 4, 5, and 10, on Day 19 only) of the same compound?
A: 100%

Q: What about the “peak mean mucositis score” value ([1]; dosed Days −1, 4, 5, and 10) of the same compound?
A: 3.1

Q: What about the “percentage of animal days with a score of 3 or higher” value ([1]; dosed Days −1, 4, 5, and 10, saline control 54.7%) of the same compound?
A: 48.0%

Q: And the “mucositis scores vs control (Mann-Whitney rank sum)” value ([1]; dosed Days −1, 4, 5 and 10, Days 21 (p=0.018), 23, 25 (p=0.040), 33, 35 (p=0.036))?
A: statistically significant reductions

Q: And the “daily mean mucositis scores and number of days animals exhibited ulceration” value ([1]; fractionated radiation model, oral rinse 3 times daily, 35 day treatment regimen)?
A: significantly reduced

Q: What about the “adverse findings in weight gain, general behavior in the home cage, or clinical signs” value ([1]; hamster, in vivo) of the same compound?
A: no adverse findings

Q: And the “adverse reaction to treatment” value ([1]; hamster, in vivo)?
A: no evidence of any adverse reaction

Q: What about the mean tumor volume ([2]; 0.06 mg/kg, Day 1) of the same compound?
A: 102 mm^3

Q: What about the mean tumor volume ([2]; 0.06 mg/kg, Day 15) of the same compound?
A: 904 mm^3

Q: What about the mean tumor volume ([2]; 0.06 mg/kg, Day 27 when final animal in group was euthanized) of the same compound?
A: 2234 mm^3

Q: What about the mean tumor volume ([2]; 0.3 mg/kg, Day 1) of the same compound?
A: 96 mm^3

Q: What about the mean tumor volume ([2]; 0.3 mg/kg, Day 15) of the same compound?
A: 869 mm^3

Q: What about the mean tumor volume ([2]; 0.3 mg/kg, end of the study) of the same compound?
A: 1002 mm^3

Q: What about the mean tumor volume ([2]; cisplatin plus Compound X 0.06 mg/kg, Day 1) of the same compound?
A: 100 mm^3

Q: And the mean tumor volume ([2]; cisplatin plus Compound X 0.06 mg/kg, Day 15)?
A: 518 mm^3

Q: What about the mean tumor volume ([2]; cisplatin plus Compound X 0.06 mg/kg, end of the study) of the same compound?
A: 338 mm^3

Q: And the mean tumor volume ([2]; cisplatin plus Compound X 0.3 mg/kg, Day 1)?
A: 104 mm^3

Q: What about the mean tumor volume ([2]; cisplatin plus Compound X 0.3 mg/kg, Day 15) of the same compound?
A: 564 mm^3

Q: What about the mean tumor volume ([2]; cisplatin plus Compound X 0.3 mg/kg, end of the study) of the same compound?
A: 510 mm^3

Q: What about the “p, tumor volume AUC to Day 15 vs vehicle control group (ANOVA on ranks)” value ([2]; cisplatin plus Compound X at 0.06 mg/kg) of the same compound?
A: 0.001

Q: What about the “p, tumor volume AUC to Day 15 vs vehicle control group (ANOVA on ranks)” value ([2]; cisplatin plus Compound X at 0.3 mg/kg) of the same compound?
A: 0.002

Q: And the “mice euthanized for tumor volume in excess of 1500 mm^3” value ([2]; groups treated with 0.06 mg/kg IP QD Days 0-28 (alone, with radiation or cisplatin))?
A: 46.7%

Q: What about the “survival at Day 29” value ([2]; groups treated with 0.06 mg/kg) of the same compound?
A: 20%

Q: And the “mice euthanized for tumor ulceration” value ([2]; groups treated with 0.06 mg/kg)?
A: 33.3%

Q: And the “mice euthanized for tumor volume in excess of 1500 mm^3” value ([2]; groups treated with 0.3 mg/kg IP QD Days 0-28 (alone, with radiation or cisplatin))?
A: 40%

Q: What about the “survival at Day 29” value ([2]; groups treated with 0.3 mg/kg) of the same compound?
A: 36.7%

Q: What about the “mice euthanized for tumor ulceration” value ([2]; groups treated with 0.3 mg/kg) of the same compound?
A: 23.3%

Q: What about the mean tumor volume ([2]; radiation plus 0.06 mg/kg, Day 1) of the same compound?
A: 96 mm^3

Q: And the mean tumor volume ([2]; radiation plus 0.06 mg/kg, Day 15)?
A: 596 mm^3

Q: What about the mean tumor volume ([2]; radiation plus 0.06 mg/kg, end of the study) of the same compound?
A: 1027 mm^3

Q: What about the mean tumor volume ([2]; radiation plus 0.3 mg/kg, Day 1) of the same compound?
A: 108 mm^3

Q: What about the mean tumor volume ([2]; radiation plus 0.3 mg/kg, Day 15) of the same compound?
A: 616 mm^3

Q: What about the mean tumor volume ([2]; radiation plus 0.3 mg/kg, end of the study) of the same compound?
A: 1376 mm^3

Q: And the “p, tumor volume AUC to Day 15 vs vehicle control group (ANOVA on ranks)” value ([2]; radiation plus Compound X at 0.3 mg/kg)?
A: 0.017
